Data as given in paper PMC8765320, “Identification of a Proteasome-Targeting Arylsulfonamide with Potential for the Treatment of Chagas’ Disease” (Antimicrobial Agents and Chemotherapy, 2022).
Where two headings read alike, the source gives them in different places.

Columns and labels:
[1] = tested on: T. cruzi epimastigotes; assay: T. cruzi epimastigote drug sensitivity assay (resazurin); assay type: cell-based, Trypanosoma cruzi; details: Trypanosoma cruzi
Method: To examine the effects of test compounds on the growth of T. cruzi epimastigotes, mid-log-phase parasites were seeded into 96-well plates at a cell density of 5 × 10^5 cells ml^−1. Cells were exposed to test compounds over a range of concentrations (2-fold serial dilutions). Cells were incubated for 4 days, and then 20 μl of 2.5 mM resazurin was added to each well, before measuring the fluorescence (excitation, 528 nm; emission, 590 nm), following a further 24 h of incubation. […] In this equation, [I] represents the inhibitor concentration, and m is the slope factor. Experiments were repeated at least two times, and the data are presented as means plus the standard deviations.

[2] = tested on: chymotrypsin-like activity of the T. cruzi proteasome; assay: Proteasome chymotrypsin-like activity luminescence assay; assay type: biochemical, Trypanosoma cruzi; details: at concentrations up to and including 3.3 μM
Method: Initially, the impact of compound 1 on the chymotrypsin-like proteolytic activity of the proteasome was assessed using a commercially available indirect enzyme-based luminescent assay. In this assay, activity is monitored in proteasome-enriched T. cruzi epimastigote lysates using Suc-LLVY-aminoluciferin as a substrate ([16]). […] Thus, an alternative route to determine the impact of this arylsulfonamide compound on T. cruzi proteasome function was required.
The effect of inhibitors on the chymotrypsin-like activity of the T. cruzi proteasome was assessed by using a luminescence-based assay, as previously described ([21]).

[3] = tested on: T. cruzi malic enzyme (cTcME); assay: Malic enzyme assay in clarified epimastigote lysates (NADPH production, 340 nm); assay type: biochemical, Trypanosoma cruzi
Text: Malic enzyme (ME) catalyzes the oxidative decarboxylation of malate to pyruvate with the concomitant reduction of NAD(P)^+ to NAD(P)H. In light of our TPP studies, we next sought to determine whether the binding of compound 1 to cTcME inhibits enzymatic activity. The ME-dependent production of NADPH was monitored in clarified lysates of T. cruzi epimastigotes at 340 nm after the addition of malate. In the first instance, this assay was validated using ATR-073, an established inhibitor of cTcME ([27]). […] Similarly, preincubation of lysates with 20 μM and 1 μM concentrations of compound 1 inhibited ME activity by 96 and 68%, respectively (Fig. 4C). […] It should be noted that ATR-073 and compound 1 are structurally similar, both being substituted N-phenyl aryl sulfonamides, this common moiety constituting the pharmacophore of this chemical series.
Logarithmic T. cruzi epimastigotes were harvested (1,690 × g, 10 min, 4°C), washed once in ice-cold phosphate-buffered saline, and resuspended at 2 × 10^9 cells ml^−1 in lysis buffer (10 mM phosphate buffer [pH 7.2], 10 mM EDTA, 5 mM benzamidine, 5 mM phenanthroline, 0.1 mM phenylmethylsulfonyl fluoride) containing 1 mg ml^−1 digitonin, followed by incubation at 28°C for 10 min. The resulting lysate was then centrifuged (13,000 × g, 10 min, 4°C), and the supernatant was harvested and stored on ice. The protein concentration of this clarified lysate was determined by using a standard Bio-Rad protein assay.
The activity of malic enzyme was assayed as previously described ([42]), with minor modifications. T. cruzi clarified lysate (30 μl) was added to a reaction mixture (500 μl final volume) containing 50 mM Tris-HCl buffer (pH 7.6), 1 mM MnCl2, and 0.12 mM NADP^+. Reactions were initiated by the addition of 5 mM L-malate. The reduction of NADP^+ was monitored at 340 nm using a UV-2401 spectrophotometer (Shimadzu). To monitor the effect of test compounds on the activity of malic enzyme, compounds (1 and 20 μM) were preincubated for 10 min with the lysate in the reaction mixture. DMSO (0.2%) was used as control. All enzymatic activities were calculated as Δabs min^−1 mg^−1 of protein.

SMILES: CCC(C)NC(=O)c1ccccc1NS(=O)(=O)c1ccc2ccccc2c1 (stereo not shown) [ATR-073]
- EC50 ([1]; WT, Fig. S3B, one biological replicate): 49 ± 29 µM
- EC50 ([1]; compound 2-Res V cells (so in the source), Fig. S3B, one biological replicate, read-out: EC50): 51 ± 18 µM
- EC50 ([1]; epimastigotes, cell line Wild-type, weighted mean, n ≥ 3, read-out: ATR-073 EC50 values): 34 ± 1 µM
- EC50 ([1]; epimastigotes, cell line cTcME OE, weighted mean, n ≥ 3, read-out: ATR-073 EC50 values): 32 ± 2 µM
- effect on the chymotrypsin-like activity of the proteasome [2]: no effect
- reduction in ME activity ([3]; preincubation of lysates with 1 μM): 63%
- reduction in ME activity ([3]; preincubation of lysates with 20 μM): 96%
